The values that follow come from PubChem BioAssay (NCI).

Some test systems named below: HOP-62 NSCLC; SW-620 colon; U251 CNS; HCC-2998 colon; OVCAR-4 ovarian; CAKI-1 renal; UACC-257 melanoma; MOLT-4 leukemia; SF-268 CNS; SK-MEL-5 melanoma.
What all share (experiment): NCI anticancer screen, dose series, 48 h

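Method: 48-hour compound exposure of cells in 96-well plates, five concentrations, linear interpolation of endpoints. GI50 is the concentration that inhibits growth by half. TGI marks complete inhibition of growth.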 Some results are limits rather than exact numbers.

`CC/C(Cc1ccccc1)=C(\c1ccc(OCCN2CCCCCC2)cc1)c1ccc(OC(=O)NCc2ccccc2)cc1`: the GI50 in the experiment on HOP-62 NSCLC is 7.02 µM; in the experiment with SW-620 colon it was 1.16 µM; in the experiment with U251 CNS, 1.77 µM; with HCC-2998 colon, 2.01 µM; in the experiment with OVCAR-4 ovarian, 1.61 µM; with CAKI-1 renal it was 4.52 µM. Moreover, the GI50 in the experiment with UACC-257 melanoma is 3.8 µM; in the experiment on MOLT-4 leukemia, 1.15 µM; in the experiment on SF-268 CNS, 4.23 µM; in the experiment with SK-MEL-5 melanoma it was 1 µM. Besides, the TGI with HOP-62 NSCLC came out at 14.5 µM; with SW-620 colon it was 2.49 µM; with U251 CNS it was 5.48 µM; with HCC-2998 colon, 8.05 µM; with OVCAR-4 ovarian, 6.03 µM; in the experiment on CAKI-1 renal it was 10.5 µM. The TGI with UACC-257 melanoma was 11.3 µM; in the experiment on MOLT-4 leukemia it was 3.78 µM; with SF-268 CNS it was 11.3 µM; with SK-MEL-5 melanoma, 2 µM.
On to `COc1ccc(C#Cc2ccccc2C#CCCCCO)cc1`, for which the GI50 with HOP-62 NSCLC was 28.6 µM; in the experiment on SW-620 colon, 17.8 µM; in the experiment on U251 CNS it was 12.7 µM; in the experiment on HCC-2998 colon, 17.9 µM; with OVCAR-4 ovarian, 11.2 µM; in the experiment on CAKI-1 renal it was 22.3 µM. In addition, the GI50 in the experiment on UACC-257 melanoma is 19.5 µM; in the experiment with MOLT-4 leukemia it was 18.3 µM; in the experiment on SF-268 CNS, 21.7 µM; in the experiment on SK-MEL-5 melanoma, 25.2 µM. The TGI in the experiment on HOP-62 NSCLC is 45.4 µM; with SW-620 colon it was 34.8 µM; with U251 CNS, 25.3 µM; in the experiment on HCC-2998 colon, 33.3 µM; in the experiment on OVCAR-4 ovarian it was 28.1 µM; in the experiment on CAKI-1 renal, 40.3 µM. The TGI is 35.8 µM in the experiment with UACC-257 melanoma, 39.2 µM in the experiment with MOLT-4 leukemia, 42.9 µM with SF-268 CNS and 57.6 µM in the experiment on SK-MEL-5 melanoma.
Take `Nc1nc(CCC(=O)Nc2cccc(C(F)(F)F)c2)cc(-c2cccc3ccccc23)n1`: the TGI in the experiment on HOP-62 NSCLC, in the experiment with SW-620 colon, in the experiment on U251 CNS, in the experiment on HCC-2998 colon, with OVCAR-4 ovarian and in the experiment with CAKI-1 renal was more than 100 µM in each case. Also, the TGI in the experiment with UACC-257 melanoma, in the experiment with MOLT-4 leukemia, in the experiment with SF-268 CNS and in the experiment with SK-MEL-5 melanoma was more than 100 µM in each case.
For the molecule `COC1=CC(c2ccc[nH]2)=N/C1=C\c1[nH]c(C)c(C(=O)OCc2ccccc2)c1C`, the GI50 with HOP-62 NSCLC was 0.314 µM; with SW-620 colon it was 0.0346 µM; with U251 CNS, 0.0616 µM; in the experiment with HCC-2998 colon, 0.087 µM; with OVCAR-4 ovarian it was 0.0756 µM; with CAKI-1 renal it was 0.0483 µM. Also, the GI50 in the experiment with UACC-257 melanoma is 0.316 µM; in the experiment with MOLT-4 leukemia, 0.0513 µM; with SF-268 CNS, 0.11 µM; with SK-MEL-5 melanoma, 0.0476 µM. Further, the TGI in the experiment with HOP-62 NSCLC was found to be 2.77 µM; in the experiment on SW-620 colon, 1.21 µM; with U251 CNS, 1.26 µM; in the experiment with HCC-2998 colon, 1.71 µM; in the experiment on OVCAR-4 ovarian it was 5.71 µM; with CAKI-1 renal, 1.76 µM. Further, the TGI in the experiment with UACC-257 melanoma was found to be 1.83 µM; in the experiment with MOLT-4 leukemia, 4.61 µM; in the experiment on SF-268 CNS, 1.94 µM; in the experiment on SK-MEL-5 melanoma it was 0.177 µM.
Take `CC1=CCC[C@@]2(C)C(CC[C@@H]2C(C)/C=C/C(C)C)c2ccc(cc2C(=O)O)C[C@@H](O)CC1` (stereo not given in full): the TGI was determined as 36.5 µM in the experiment on HOP-62 NSCLC; 32.2 µM in the experiment with SW-620 colon; 16 µM in the experiment with U251 CNS; 23.5 µM with HCC-2998 colon; 25.6 µM with OVCAR-4 ovarian; 32.9 µM in the experiment with CAKI-1 renal. Besides, the TGI in the experiment on UACC-257 melanoma was 30.5 µM; in the experiment on MOLT-4 leukemia it was 28 µM; in the experiment on SF-268 CNS it was 29.7 µM; in the experiment on SK-MEL-5 melanoma, 12.5 µM.
With `C=C1C(=O)O[C@H]2[C@H]1CC/C(CNC(=O)/C=C/c1ccc(Br)cc1)=C\CC[C@@]1(C)O[C@@H]21`, the GI50 in the experiment on HOP-62 NSCLC is 2.2 µM; in the experiment with SW-620 colon, 0.444 µM; in the experiment with U251 CNS, 1.46 µM; in the experiment with HCC-2998 colon, 1.56 µM; in the experiment on OVCAR-4 ovarian it was 1.37 µM; with CAKI-1 renal it was 1.12 µM. For the same molecule, the GI50 in the experiment with UACC-257 melanoma was 1.43 µM; with MOLT-4 leukemia it was 0.678 µM; in the experiment on SF-268 CNS, 1.78 µM; in the experiment with SK-MEL-5 melanoma, 1.6 µM. Further, the TGI worked out at 6.87 µM in the experiment on HOP-62 NSCLC; 1.77 µM in the experiment on SW-620 colon; 3.09 µM in the experiment on U251 CNS; 3 µM in the experiment with HCC-2998 colon; 2.96 µM with OVCAR-4 ovarian; 2.34 µM with CAKI-1 renal. For the same molecule, the TGI in the experiment on UACC-257 melanoma came to 2.97 µM; in the experiment with MOLT-4 leukemia, 4.25 µM; in the experiment on SF-268 CNS, 4.27 µM; in the experiment with SK-MEL-5 melanoma, 2.96 µM.
